Laboratory results published in US7465814B2, “Sulfonate compound and fluorescent probe using the same” (priority 2003, dated 2008).
Where two headings read alike, the source gives them in different places.

Assays:
[1] = Fluorescent response to glucose (Table 1); format: biochemical; settings: relative fluorescence intensity, blank = 10; probe 21.3 μM, glucose 50 μM, 37° C., 10 minutes
Description: (§1) Moreover, in other conditions than those of the above-described tests, reactivity of all of the compounds 1a to 1d with H2O2, other various kinds of nucleophilic agents, reducing agents and the like also was tested, respectively. More specifically, fluorescent responses of 1a to 1d with respect to a XO-HPX system, a XO-HPX-SOD system, H2O2, ascorbic acid, 1,4-hydroquinone, propylamine, diethylamine, glucose, esterase, a cytochrome P450 reductase+NADPH system, and a diaphorase+NADH system were measured, respectively. Operational processes thereof will be described below. Firstly, 1a to 1d and the above-described reagents were dissolved in HEPES of 10 mM having a pH of 7.4 so as to prepare solutions, respectively. Next, a 96 wellmicroplate was provided, where any of the solutions of 1a to 1d (25 μM, 170 μL) was poured into each of the wells, and furthermore, 30 μL of a blank solution or 30 μL of the solution of the reagent to be reacted therewith was added thereto. Final concentrations of the solutions in the wells were adjusted so that concentrations of the solutions of 1a to 1d respectively could be 21.3 μM, that of XO could be 13.1 mU/mL, those of HPX, H2O2, ascorbic acid, 1,4-hydroquinone, propylamine, diethylamine, glucose, NADPH and NADH respectively could be 50 μM, that of cytochrome P450 reductase could be 68 mU/mL, that of diaphorase could be 65 mU/mL, and that of esterase could be 0.5 U/mL, respectively. Then, after they reacted in the wells at 37° C. for 10 minutes, fluorescent responses were measured respectively. Fluorescence intensity measurement was conducted by using an ETC-272 Peltier thermostatted single cell holder (trade name) manufactured by JASCO Corporation or a SpectraMax GeminiEM fluorescence plate reader (trade name) manufactured by Molecular Devices Corporation provided with a FP-750 spectrofluorometer (trade name) manufactured by JASCO Corporation, and by setting excitation wavelengths and emission wavelengths so that those of 1a, 1b and 1c respectively could be 485 nm and 515 nm, and those of 1d respectively could be 511 nm and 540 nm.

[2] = Tracking fluorescence with enzymatically produced superoxide (FIG. 1a-c); format: biochemical
Excerpt: This figure is a graph showing results that are obtained by tracking fluorescence by allowing the compound 1d to react with H2O2 or superoxide produced enzymatically, a horizontal axis thereof represents a reaction time (second), and a vertical axis thereof represents a fluorescence intensity (au). In the figure, (a) represents a result obtained by a reaction in the presence of HPX and XO, (b) represents a result obtained by a reaction in the presence of HPX, XO and SOD, (c) represents a result obtained by a reaction under an anaerobic condition in the presence of HPX, XO and SOD, and (d) represents a result obtained by a reaction with only H2O2. The test results shown in FIG. 1 will be described below in further detail.
More specifically, the enzyme reaction of the compound 1d (16 μM), xanthine oxidase (XO, 0.01 U/mL) and hypoxanthine (HPX, 40 μM) at 37° C. in a HEPES buffer solution (pH 7.4, 10 mM, 2.5 mL) was tracked at an excitation wavelength of 511 nm and an emission wavelength of 531 nm, then a fluorescent response caused by the formation of the compound 2d (above Scheme 4) was observed, and a progressive curve shown in FIG. 1(a) was obtained.
A specific description thereof will be provided below. NBT has a property of being reduced by superoxide O^2−•, and thus is used for a probe for spectrophotometric measurement and the like. However, NBT has a serious problem of being reduced not only by superoxide but also by reductase that exists in a biosystem.

neutrophils = settings: for cell viability after the incubation with respect to before the incubation: 37° C., 120 minutes
Description: Moreover, a toxicity of the compound 1d with respect to the neutrophils was evaluated by estimating cell viability by a trypan blue dyeing method. More specifically, the neutrophils (1.0×10^5 cells) were incubated at 37° C. for 120 minutes in a glass test tube coated with human serum albumin, in the presence of both of the compound 1d (6.25 μM) and PMA (0.16 μM), in the presence of either of them, and in the absence of them, respectively. Then, cell viability after the incubation with respect to cell viability before the incubation was measured.

[3] = Fluorescent response to diethylamine (Table 1); format: biochemical; settings: relative fluorescence intensity, blank = 10; probe 21.3 μM, diethylamine 50 μM, 37° C., 10 minutes
Description: as §1

esterase = test: Fluorescent response to esterase (Table 1); format: biochemical; settings: relative fluorescence intensity, blank = 10; probe 21.3 μM, esterase 0.5 U/mL, 37° C., 10 minutes
Description: as §1

O=C1OC2(c3ccccc31)c1cc(F)c(OS(=O)(=O)c3ccc([N+](=O)[O-])cc3[N+](=O)[O-])c(F)c1Oc1c2cc(F)c(OS(=O)(=O)c2ccc([N+](=O)[O-])cc2[N+](=O)[O-])c1F [Compound 1d]
fluorescent response, glucose [1]: 10
fluorescence response with HPX and XO, FIG. 1(a) ([2]; 1d 16 μM, XO 0.01 U/mL, HPX 40 μM, 37° C., HEPES pH 7.4, ex 511 nm, em 531 nm): increase a fluorescence response significantly in a short period of time
production of 2d from 1d caused by XO reductant, FIG. 1(c) ([2]; HPX, XO and SOD under the anaerobic condition): proceeded at a very low speed
fluorescence response with HPX, XO and SOD, FIG. 1(b) ([2]; as FIG. 1(a) plus SOD 40 U/mL): inhibited significantly
cell viability after the incubation with respect to before the incubation (neutrophils; in the presence of both 1d (6.25 μM) and PMA (0.16 μM)): 97%
toxicity with respect to the neutrophils (neutrophils; incubation of 120 minutes): did not show any significant toxicity
cell viability after the incubation with respect to before the incubation (neutrophils; substance only (1d 6.25 μM or PMA 0.16 μM), 1.0×10^5 neutrophils): 95%
fluorescent response, diethylamine [3]: 11
fluorescent response, esterase (esterase): 15
